In patent publication US10206908B2, “3-(1H-pyrrolo[3,2-C]pyridin-2-YL)-1H-pyrazolo[3,4-C]pyridines and therapeutic uses thereof” (Samumed, LLC, priority 2015, dated 2019):

Assays:
Type in all cases: cell-based
[1] = system: Wnt activity (Sp5-Luc reporter, SW480 colon carcinoma cells); experiment: Screening assay for Wnt activity: Sp5-Luc reporter gene assay in SW480 colon carcinoma cells; details: Homo sapiens; for EC50: Sp5-Luc reporter, SW480 cells, overnight incubation; for inhibition at 10 µM: SW480, read-out: percent inhibition at 10 μM
Text: The screening assay for Wnt activity is described as follows. Reporter cell lines can be generated by stably transducing cancer cell lines (e.g., colon cancer) or primary cells (e.g., IEC-6 intestinal cells) with a lentiviral construct that includes a Wnt-responsive promoter driving expression of the firefly luciferase gene.
SW480 colon carcinoma cells were transduced with a lentiviral vector expressing luciferase with a human Sp5 promoter consisting of a sequence of eight TCF/LEF binding sites. SW480 cells stably expressing the Sp5-Luc reporter gene and a hygromycin resistance gene were selected by treatment with 150 μg/mL of hygromycin for 7 days. These stably transduced SW480 cells were expanded in cell culture and used for all further screening activities. […] For Sp5-Luc reporter gene assays, the cells were plated at 4,000 cells/well in 384-well plates with medium containing 1% fetal bovine serum and incubated overnight at 37° C. and 5% CO2. Following incubation, 20 μl of BrightGlo luminescence reagent (Promega) was added to each well of the 384-well assay plates. The plates were placed on an orbital shaker for 2 min and then luminescence was quantified using the Envision (Perkin Elmer) plate reader. Readings were normalized to DMSO only treated cells, and normalized activities were utilized for EC50 calculations using the dose-response log (inhibitor) vs. response-variable slope (four parameters) nonlinear regression feature available in GraphPad Prism 5.0 (or Dotmatics).

SW480 colon cancer cells = experiment: Cell viability assay (CellTiter-Blue) in SW480 colon cancer cells; details: Homo sapiens; for EC50: 96 h, SW480 cell viability, four days; for inhibition at 10 µM: SW480, read-out: percent inhibition at 10 μM
Method: Representative compounds were screened using the following assay procedure to assess the effect on cell viability as described below.
Approximately 2×10^3 SW480 colon cancer cells were seeded into each well and allowed to incubate in the presence or absence of compound for four days at 37° C./5% CO2. Eight replicates of DMSO-treated cells served as controls and cells treated with compound were performed in duplicate.
After incubation, 20 μL of CellTiter-Blue (Promega) was added to each well allowed to incubate for approximately 3 hours. This reagent was a buffered solution which contains resazurin, metabolically active cells were able to reduce rezarurin (blue) into resorufin (pink) which was highly fluorescent. This measured fluorescence was used as a readout for cell viability.

[2] = system: primary human fibroblasts derived from IPF patients (LL29 cells) treated with TGF-β1; experiment: Inhibition of the fibrotic process: αSMA staining in TGF-β1 treated LL29 fibroblasts; details: Fibroblast; for EC50: 96 h, % αSMA positive LL29 cells, TGF-β1 20 ng/mL, 4 days
Method: Representative compounds were screened using primary human fibroblasts (derived from IPF patients) treated with TGF-β1 to determine their ability to inhibit the fibrotic process.
LL29 cells are plated at 1,500 cells/well in 80 μL/well F12 medium supplemented with 1% Fetal Bovine Serum. […] Wells treated with TGF-β1 and containing DMSO were used as controls. […] Following incubation for 4 days, SYTOX green nucleic acid stain (Life Technologies [Thermo Fisher Scientific]) was added to the wells at a final concentration of 1 μM and incubated at room temperature for 30 min.

[3] = system: primary human mesenchymal stem cells (hMSCs); experiment: Induction of chondrogenesis in hMSCs (chondrogenic nodules, Rhodamine B/Nile Red); details: 6 days; for EC50: concentration required to induce 50% levels of chondrogenesis vs TGF-β3, read-out: Conc (nM) of 50% TGF-β3 activity; for Emax: relative to TGF-β3 (10 ng/mL) positive control, read-out: Max. Activity as % TGF-β3 activity
Text: Representative compounds were screened using primary human mesenchymal stem cells (hMSCs) to determine their ability to induce chondrogenesis (process by which cartilage is developed).
Human Mesenchymal Stem Cell Culture: Primary human mesenchymal stem cells (hMSCs) were purchased from Lonza (Walkersville, Md.) and expanded in Mesenchymal Stem Cell Growth Media (Lonza). Cells between passage 3 and 6 were used for the experiments.
Number of nodules in each well was normalized to the average of 3 DMSO treated wells on the same plate using Excel (Microsoft Inc.). The normalized averages (fold change over DMSO) of 3 replicate wells for each compound concentration were calculated. Due to solubility limitations of some of the compounds, curve fitting was incomplete leading to inaccurate EC50 determinations.
Using TGF-β3 as a positive control, the concentration of representative compounds required to induce 50% levels of chondrogenesis is reported. In addition, the maximum activity of each compound and the respective dose that each compound reached maximum chondrogenesis activity is reported.

IL-6 (THP-1 cells) = experiment: IL-6 inhibition in LPS-stimulated THP-1 monocytes (HTRF); details: Homo sapiens; for EC50: IL-6, THP-1 cells, LPS 500 ng/mL, 22 hours; for inhibition at 10 µM: THP-1, read-out: percent inhibition at 10 μM
Method: Compound Screening: THP-1 cells were cultured in basal media with 1% FBS for 24 hours before the start of the assay. […] THP-1 cells were plated at 5000 cells/well in the 384-well plates and incubated at 37° C. for 2 h. 500 ng/mL of LPS was added after 2 hours and cells were incubated for another 22 hours at 37° C. Plates were spun in a centrifuge for 1 minute at […] and a mixture of anti-IL6 XL665, and anti-IL6 Cryptate diluted in reconstitution buffer (Cisbio Inc.) was added to each well. Following incubation for 3 hrs at room temperature, Homogeneous Time-Resolved Fluorescence (HTRF) was measured using the Envision (Perkin Elmer) at 665 nm and […]. The ratio of fluorescence at 665 nm to 620 nm was used as a readout for IL6 quantification. All samples were processed in duplicate. Readings were normalized to DMSO treated cells and normalized activities were utilized for EC50 calculations using the dose-response log (inhibitor) vs. response-variable slope (four parameters) nonlinear regression feature available in GraphPad Prism 5.0 (or Dotmatics).

EC50 [1] [µM]	EC50 (SW480 colon cancer cells) [µM]	EC50 [3] [nM]	EC50 (IL-6 (THP-1 cells)) [µM]	Compound	inhibition at 10 µM (SW480 colon cancer cells) [%]	EC50 [2] [µM]	Emax [3] [%]	inhibition at 10 µM [1] [%]	inhibition at 10 µM ([2]; read-out: percent inhibition at 10 μM) [%]	inhibition at 10 µM (IL-6 (THP-1 cells)) [%]
0.389	0.798	10	0.944	Cc1ccncc1-c1cc2c(-c3cc4cnccc4[nH]3)n[nH]c2cn1 [Compound 257, 5-(4-Methylpyridin-3-yl)-3-(1H-pyrrolo[3,2-c]pyridin-2-yl)-1H-pyrazolo[3,4-c]pyridine]		0.376	61			
0.133	0.628	30	0.362	c1cncc(-c2cc3c(-c4cc5cnccc5[nH]4)n[nH]c3cn2)c1 [Compound 256, 5-(Pyridin-3-yl)-3-(1H-pyrrolo[3,2-c]pyridin-2-yl)-1H-pyrazolo[3,4-c]pyridine]		0.025	62			
3.88	> 10		4.61	CCCCC(=O)Nc1cncc(-c2cc3c(-c4cc5cnccc5[nH]4)n[nH]c3cn2)c1 [Compound 271, N-(5-(3-(1H-Pyrrolo[3,2-c]pyridin-2-yl)-1H-pyrazolo[3,4-c]pyridin-5-yl)pyridin-3-yl)pentanamide]	26.2	4.69	50			
1.62	5.2	30	2.69	O=C(Nc1cncc(-c2cc3c(-c4cc5cnccc5[nH]4)n[nH]c3cn2)c1)C1CCCCC1 [Compound 275, N-(5-(3-(1H-Pyrrolo[3,2-c]pyridin-2-yl)-1H-pyrazolo[3,4-c]pyridin-5-yl)pyridin-3-yl)cyclohexanecarboxamide]		1.88	59			
0.58	> 10	10	> 10	O=C(Nc1cncc(-c2cc3c(-c4cc5cnccc5[nH]4)n[nH]c3cn2)c1)c1ccccc1 [Compound 263, N-(5-(3-(1H-Pyrrolo[3,2-c]pyridin-2-yl)-1H-pyrazolo[3,4-c]pyridin-5-yl)pyridin-3-yl)benzamide]	8.5	0.097	152			10.3
1.54	> 10	30	> 10	O=C(Nc1cncc(-c2cc3c(-c4cc5cnccc5[nH]4)n[nH]c3cn2)c1)C1CC1 [Compound 272, N-(5-(3-(1H-Pyrrolo[3,2-c]pyridin-2-yl)-1H-pyrazolo[3,4-c]pyridin-5-yl)pyridin-3-yl)cyclopropanecarboxamide]	18.6	1.9	58			9.6

More lines, now with the values behind:

Compound	EC50 [1] [µM]	EC50 (SW480 colon cancer cells) [µM]	EC50 [3] [nM]	EC50 (IL-6 (THP-1 cells)) [µM]	inhibition at 10 µM (SW480 colon cancer cells) [%]	EC50 [2] [µM]	Emax [3] [%]	inhibition at 10 µM [1] [%]	inhibition at 10 µM ([2]; read-out: percent inhibition at 10 μM) [%]	inhibition at 10 µM (IL-6 (THP-1 cells)) [%]
CN1CCN(c2nccc3[nH]c(-c4n[nH]c5cnc(-c6cncc(NC(=O)C(C)(C)C)c6)cc45)cc23)CC1 [Compound 232, N-(5-(3-(4-(4-Methylpiperazin-1-yl)-1H-pyrrolo[3,2-c]pyridin-2-yl)-1H-pyrazolo[3,4-c]pyridin-5-yl)pyridin-3-yl)pivalamide]	1.88	> 10	10	0.388	62.2	0.756	88			
Fc1cccc(-c2nccc3[nH]c(-c4n[nH]c5cnc(-c6cccnc6)cc45)cc23)c1 [Compound 4, 3-(4-(3-Fluorophenyl)-1H-pyrrolo[3,2-c]pyridin-2-yl)-5-(pyridin-3-yl)-1H-pyrazolo[3,4-c]pyridine]	0.5	0.867	300	0.649		0.02	114			
Fc1ccccc1-c1nccc2[nH]c(-c3n[nH]c4cnc(-c5cncc(CN6CCCC6)c5)cc34)cc12 [Compound 70, 3-(4-(2-Fluorophenyl)-1H-pyrrolo[3,2-c]pyridin-2-yl)-5-(5-(pyrrolidin-1-ylmethyl)pyridin-3-yl)-1H-pyrazolo[3,4-c]pyridine]	1.99	3.16	10	2.32		1.25	69			
CS(=O)(=O)NCc1cc(F)cc(-c2nccc3[nH]c(-c4n[nH]c5cnc(-c6cncc(CNCC7CCCC7)c6)cc45)cc23)c1 [Compound 501, N-(3-(2-(5-(5-(((Cyclopentylmethyl)amino)methyl)pyridin-3-yl)-1H-pyrazolo[3,4-c]pyridin-3-yl)-1H-pyrrolo[3,2-c]pyridin-4-yl)-5-fluorobenzyl)methanesulfonamide]	> 10	> 10	30	3.42	23	> 10	52	49.3	41.7	
O=C(Nc1cncc(-c2cc3c(-c4cc5c(N6CCCCC6)nccc5[nH]4)n[nH]c3cn2)c1)C1CCC1 [Compound 189, N-(5-(3-(4-(Piperidin-1-yl)-1H-pyrrolo[3,2-c]pyridin-2-yl)-1H-pyrazolo[3,4-c]pyridin-5-yl)pyridin-3-yl)cyclobutanecarboxamide]	4.07	4.89		3.43		1.23	42			
CCC(=O)Nc1cncc(-c2cc3c(-c4cc5c(N6CCN(C)CC6)nccc5[nH]4)n[nH]c3cn2)c1 [Compound 225, N-(5-(3-(4-(4-Methylpiperazin-1-yl)-1H-pyrrolo[3,2-c]pyridin-2-yl)-1H-pyrazolo[3,4-c]pyridin-5-yl)pyridin-3-yl)propionamide]	> 10	> 10	30	0.743	7.9	5.3	70	52.4		
O=C(Nc1cncc(-c2cc3c(-c4cc5c(-c6ccccc6F)nccc5[nH]4)n[nH]c3cn2)c1)C1CCC1 [Compound 77, N-(5-(3-(4-(2-Fluorophenyl)-1H-pyrrolo[3,2-c]pyridin-2-yl)-1H-pyrazolo[3,4-c]pyridin-5-yl)pyridin-3-yl)cyclobutanecarboxamide]	1.25	4.28		2.8		2.83	44			
CN(C)CCOc1cncc(-c2cc3c(-c4cc5c(-c6ccc(F)cc6)nccc5[nH]4)n[nH]c3cn2)c1 [Compound 531, 2-((5-(3-(4-(4-Fluorophenyl)-1H-pyrrolo[3,2-c]pyridin-2-yl)-1H-pyrazolo[3,4-c]pyridin-5-yl)pyridin-3-yl)oxy)-N,N-dimethylethan-1-amine]	3.2	3.59	900	3.5		0.92	113			
